Measured values published in patent US20070212717A1, “Method for Inhibiting Hepatitis C Virus Replication” (priority 2006, published 2007).

Columns and labels:
PIK4CA transcript = assay: siRNA transfection of MP1 cells, real-time RT-PCR of PIK4CA transcript levels; assay type: cell-based, human
Description: In order to confirm that knockdown of PI4K inhibits HCV RNA replication, an independent method of suppressing the host gene using siRNA synthetic oligonucleotides, is implemented. […] The effect is specific in that transfection of non-specific oligonucleotides elicits no effect on HCV RNA replication. For the siRNA oligo transfection experiments, the MP1 cells (human hepatoma Huh-7 cell line harboring HCV RNA replicon with a luciferase reporter gene, as described above) are also used. Cells are maintained in DMEM High glucose (Wisent Inc.) supplemented with 10% fetal bovine serum (FBS; HyClone) containing neomycin (250 μg/ml) (Geneticin; Invitrogen). The assay medium lacks the neomycin. […]
(§1) The negative control corresponds to a no match NS5B sequence (AAGAGAGUCAGUCAGCUAAUCAC) [SEQ ID NO. […] Moreover, RNA is also isolated (using the 96-well Qiagen extraction method as described in example 1) from a replicate plate of transfected cells such that real-time RT-PCR quantifying HCV replicon copy number (as described in example 1) and cellular transcript RNA levels are performed. The method of quantifying host transcript RNA levels is similar to HCV RNA quantification except that the primers and the TaqMan probe are specific for the PIK4CA gene. […]
A standard curve for a relative quantification of PIK4CA transcript expression per μg total RNA is established for each transcript. […]

HCV RNA replicon = assay: siRNA transfection of MP1 cells, HCV replicon luciferase assay; assay type: cell-based, hepatitis C virus; settings: luciferase reporter or HCV RNA
Procedure: The “Luciferase assay system” from Promega is used to measure firefly luciferase (reporter) expression in the MP1 cell line in a 96-well format with the following protocol: • Prepare the Luciferase assay reagent by adding Luciferase assay buffer to the vial containing the lyophilized Luciferase assay substrate • Prepare 1× Luciferase cell culture lysis reagent by adding 4 volumes of water to 1 volume of 5× lysis buffer • Carefully remove the assay medium from cells • Rinse cells with 100 μl PBS buffer being careful to not dislodge attached cells • A black backing tape (Packard) is applied on bottom side of the 96-well black clear bottom plate. • Aliquot 30 μl/well of 1× Luciferase cell culture lysis reagent • Incubate at room temperature 10 minutes minimum • Aliquot 150 μl/well of Luciferase assay reagent and immediately measure the light produced on a TopCount NXT Instrument (Packard) (count time=2 s/well) […]
as §1, with “performed.” for “performed. The method of quantifying host transcript RNA levels is similar to HCV RNA quantification except that the primers and the TaqMan probe are specific for the PIK4CA gene.”

hepatitis C virus = settings: two day clinical trial; cited from earlier work

PIK4CA siRNA #9: siRNA (si Genome duplex, Dharmacon) with defined sequence # 9 targeting a segment on the host transcript (GCAGAAATTTGGCCTGTTT; listed as DNA, further chemistry not given here)
reduction of PIK4CA transcript levels (PIK4CA transcript; 10 nM siRNA, RT-PCR, relative to DharmaFECT only): ~25%
inhibition of HCV replicon levels (HCV RNA replicon): proportionally lower inhibition

COc1ccc2c(O[C@@H]3C[C@H]4C(=O)N[C@]5(C(=O)O)C[C@H]5/C=C\CCCCC[C@H](NC(=O)OC5CCCC5)C(=O)N4C3)cc(-c3csc(NC(C)C)n3)nc2c1 [BILN2061]
effect on PIK4CA transcript levels (PIK4CA transcript; controls (siRNA 10 nM; BILN 2061 100 nM)): no effect
viral loads in patients infected with the hepatitis C virus (hepatitis C virus): effective in rapidly reducing viral loads
